Results on seven molecules are retold here after ChEMBL document CHEMBL1201862, “PubChem BioAssay data set” (2004).

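Growth conditions: 96-well plates. Treatment: test compound, 48 hours, 5 concentrations. Analysis: linear interpolation between bracketing concentrations; unreached endpoints set to highest concentration. Here, GI50 denotes the concentration required for 50% inhibition of growth.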 Activity calls are given as the source filed them. No stated cut-off is given here; in the data, active = GI50 up to about 1.1 µM and inactive = higher.

Common to all, as to assay: growth of human tumour cells (NCI), 48 h
The subject of experiment [1] is HL-60.
Experiment [2] deals with KM12.
The test system of experiment [3] is M14.
Experiment [4] concerns RPMI-8226.
Experiment [5] concerns MCF7.
Experiment [6] concerns SNB-75.
Experiment [7] deals with A549.
For experiment [8], the system named is CCRF-CEM.
Experiment [9] relates to HCT-15.
For experiment [10], the system named is ACHN.
In experiment [11] the test system is UO-31.
Experiment [12] has as its system NCI/ADR-RES.
Experiment [13] deals with SK-MEL-28.
Experiment [14] concerns Malme-3M.
For experiment [15], the system named is DU-145.
Experiment [16] deals with OVCAR-3.
For experiment [17], the system named is 786-0.
Experiment [18] relates to Hs-578T.
Experiment [19] deals with IGROV-1.
Experiment [20] deals with MDA-MB-231.

In the case of `COC(=O)CCC(C)[C@H]1CCC2C3C(C[C@H](OC(C)=O)[C@@]21C)[C@@]1(C)CCC2(C[C@H]1C[C@H]3OC(C)=O)OOC1(CCCCC1)OO2` (stereo not given in full), the GI50 in [1] is 7.26 µM (inactive); in [2] it was 23.6 µM (inactive); in experiment [3], 15.5 µM (inactive); in experiment [4], 1.99 µM (inactive); in experiment [5], 22.3 µM (inactive); in [6], 21.2 µM (inactive). The GI50 in [7] is 11.3 µM (inactive); in experiment [8] it was 4.27 µM (inactive); in experiment [9], 21.8 µM; in [10], 11.2 µM (inactive); in [11], 5.73 µM (inactive); in experiment [12], 49.2 µM (inactive). Moreover, the GI50 in experiment [13] is > 100 µM (inactive); in [14], 36.4 µM (inactive); in experiment [15], 41.5 µM (inactive); in experiment [16] it was 40.5 µM (inactive); in experiment [17], 15.1 µM (inactive); in experiment [18], 12 µM (inactive). Also, the GI50 in experiment [19] was 5.2 µM (inactive); in [20], 18 µM (inactive).
As to `NC(=O)C1CCCNC1` (stereo not given), the GI50 in experiment [1], in experiment [2], in [3], in experiment [4], in experiment [5] and in experiment [6] was > 100 µM (inactive) in each case. Further, the GI50 in experiment [7] was > 100 µM (inactive); in experiment [8], > 100 µM (inactive); in [9], greater than 100 µM; in experiment [10], > 100 µM (inactive); in experiment [11], > 100 µM (inactive); in experiment [12] it was > 100 µM (inactive). Also, the GI50 in experiment [13], in experiment [14], in experiment [15], in experiment [16], in experiment [17] and in experiment [18] was > 100 µM (inactive) each time. Further, the GI50 in experiment [19] and in [20] was > 100 µM (inactive) in each case.
In the case of `CN(C)Cc1cc(C(=O)/C=C/c2c(Cl)cccc2Cl)cc(CN(C)C)c1O`, the GI50 is 2.07 µM (inactive) in [1]; 2.65 µM (inactive) in experiment [2]; 4.91 µM (inactive) in experiment [3]; 4.78 µM (inactive) in experiment [4]; 3.71 µM (inactive) in [5]; 3.34 µM (inactive) in experiment [6]. The GI50 was 11.5 µM (inactive) in [7]; 3.74 µM (inactive) in experiment [8]; 10.8 µM in [9]; 2.8 µM (inactive) in [10]; 2.79 µM (inactive) in experiment [11]; 4.57 µM (inactive) in experiment [12]. The GI50 in experiment [13] is 8.49 µM (inactive); in experiment [14], 3.69 µM (inactive); in experiment [15] it was 8.2 µM (inactive); in experiment [16] it was 5.7 µM (inactive); in experiment [17], 5.2 µM (inactive); in experiment [18], 14 µM (inactive). The GI50 was 7.83 µM (inactive) in experiment [19] and 4.61 µM (inactive) in [20].
As for `COc1ccc(C2OC2C(=O)C23CC4CC(CC(C4)C2)C3)cc1` (stereo not given), the GI50 in experiment [1] was 15.9 µM (inactive); in experiment [2] it was 96.8 µM (inactive); in experiment [3], > 100 µM (inactive); in [4], 25.2 µM (inactive); in experiment [5], 47.9 µM (inactive); in experiment [6] it was > 10 µM (inactive). Also, the GI50 in experiment [7] is 45.6 µM (inactive); in experiment [8] it was 60.7 µM (inactive); in [9], 41.4 µM; in experiment [10], > 100 µM (inactive); in experiment [11], > 100 µM (inactive); in experiment [12], > 100 µM (inactive). In addition, the GI50 in [13] was > 100 µM (inactive); in experiment [14], > 100 µM (inactive); in experiment [15], 90.8 µM (inactive); in [16], > 100 µM (inactive); in experiment [17] it was 46.3 µM (inactive); in [18], 13.6 µM (inactive). Besides, the GI50 in experiment [19] is 71.1 µM (inactive); in [20] it was 33 µM (inactive).
`COc1ccc2c(c1O)-c1c(OC)c(OC)cc3c1[C@H](C2)[N+](C)(C)CC3`: the GI50 in experiment [1], in experiment [2], in [3], in experiment [4], in [5] and in experiment [6] was > 100 µM (inactive) in each case. The GI50 in [7] was > 100 µM (inactive); in [8], > 100 µM (inactive); in [9], greater than 100 µM; in experiment [10], > 100 µM (inactive); in [11], > 100 µM (inactive); in [12] it was > 100 µM (inactive). The GI50 in experiment [13], in experiment [14], in experiment [15], in [16], in experiment [17] and in experiment [18] was > 100 µM (inactive) throughout. Further, the GI50 in experiment [19] and in [20] was > 100 µM (inactive) in each case.
For `O=C1/C(=C/c2ccc(O)cc2)CCC1CNc1ccccc1` (stereo not given), the GI50 in [1] was 1.96 µM (inactive); in experiment [2] it was 6.65 µM (inactive); in [3] it was 12.2 µM (inactive); in experiment [4] it was 1.15 µM (inactive); in [5], 2.25 µM (inactive); in experiment [6] it was 26.2 µM (inactive). Moreover, the GI50 was 17.8 µM (inactive) in experiment [7]; 1.61 µM (inactive) in experiment [8]; 5.05 µM in [9]; 12.3 µM (inactive) in experiment [10]; 15.6 µM (inactive) in experiment [11]; 19 µM (inactive) in [12]. Besides, the GI50 in experiment [13] is 15.4 µM (inactive); in experiment [14], 15.3 µM (inactive); in experiment [15], 12.3 µM (inactive); in experiment [16] it was 14.6 µM (inactive); in [17] it was 6.9 µM (inactive); in [18] it was 21.5 µM (inactive). For the same molecule, the GI50 in experiment [19] was 11.3 µM (inactive); in [20], 14.4 µM (inactive).
Turning to `CC(=O)c1csc2c1C(=O)c1ccccc1C2=O`, the GI50 in experiment [1] was 0.29 µM (active); in experiment [2], 1.53 µM (inactive); in experiment [3] it was 1.07 µM (active); in experiment [4], 5.65 µM (inactive); in experiment [5], 2.1 µM (inactive); in experiment [6] it was 1.73 µM (inactive). Also, the GI50 is 1.92 µM (inactive) in [7]; 1.56 µM (inactive) in [8]; 4.55 µM in experiment [9]; 2.02 µM (inactive) in experiment [10]; 2.64 µM (inactive) in experiment [11]; 2.88 µM (inactive) in experiment [12]. Moreover, the GI50 was 1.92 µM (inactive) in [13]; 0.483 µM (active) in experiment [14]; 1.67 µM (inactive) in experiment [15]; 3.66 µM (inactive) in [16]; 2.07 µM (inactive) in experiment [17]; 2.43 µM (inactive) in [18]. For the same molecule, the GI50 is 2.4 µM (inactive) in experiment [19] and 6.76 µM (inactive) in experiment [20].
